Test results from patent US9441016B2, “Complete genome sequence of the methanogen Methanobrevibacter ruminantium” (Pastoral Greenhouse Gas Research Ltd., priority 2009, dated 2016).
Each block holds one molecule with its values, some of them ahead of it.

Tests used:
M. ruminantium M1 [1] = assay: Effect of the lytic enzyme PeiR on M1 growth in vitro (culture density, methane); assay type: cell-based, Methanobrevibacter ruminantium
Experimental: M1 was grown in medium RM02 in anaerobic culture tubes (16 mm internal diameter, 18 mm outer diameter, 150 mm long; Bellco Glass, Vineland, N.J., USA), essentially as described by Balch and Wolfe, 1976. The mineral salts base of RM02 contained (per liter of medium): 1.4 g of KH2PO4, 0.6 g of (NH4)2SO4, 1.5 g of KCl, 1 ml trace element solution […] et al., 1983), 1 ml of selenite/tungstate solution ([…] and […], 1984) and 4 drops of 0.1% (w/v) resazurin solution. This solution was mixed and then boiled under O2-free 100% CO2, before being cooled in an ice bath while it was bubbled with 100% CO2. Once the medium was cool, 4.2 g of NaHCO3 and 0.5 g of L-cysteine.HCl.H2O was added per liter. […] In the experiments testing the effects of PeiR addition, the culture densities were mathematically normalised to an OD600 of 0.1 at the time the additions were made, and all other readings corrected by the same ratio. […] Methane was measured by gas chromatography, taking a 0.3 ml sample from the culture headspace, at the pressure in the culture tube, and injecting it into an Aerograph 660 (Varian Associates, Palo Alto, Calif., USA) fitted with a Porapak Q 80/100 mesh column (Waters Corporation, Milford, Mass., USA) and a thermal conductivity detector operated at 100° C. […]

[2] = test system: Mbb. ruminantium A1Ao ATP synthase; assay: ATP hydrolysis by A1Ao ATP synthase with inhibitors (inorganic phosphate assay); assay type: biochemical, Methanobrevibacter ruminantium; settings: in high concentrations
Text: Two enzyme preparations were studied. Purified ATP synthase from BL21 and recombinant enzyme expressed in E. coli DK8 membranes. Purified […] ATP synthase was examined for ATPase activity using the inorganic phosphate assay. […] TBT is a well characterized Fo and Ao channel inhibitor of ATP synthases. To examine the coupling ion used by the Mbb. ruminantium […] ATP synthase, the effect of amiloride, a known Na^+-coupled V-type ATPase and Na^+ channel inhibitor was also examined. […] E. coli DK8 (Δatp) inverted membranes containing the recombinant […]-ATPase were used to determine the effects of the inhibitors TBT (200 μM) and DCCD (250 μM) at different pH values. ATPase activity was measured in presence of 130 mM Na^+ (FIG. 30A) and in absence of Na^+ (FIG. 30B). After preincubation with the inhibitor for 20 min at room temperature ([…]), the reaction was started at 39° C. by addition of Na2-ATP or Tris-ATP to a final concentration of 2.5 mM. 0.5 mg inverted membrane vesicles was used in each end-point assay. […] FIGS. 30A and 30B). […] FIG. 30C). Amiloride inhibition of ATP hydrolysis of the Mbb. ruminantium […] ATP synthase was evaluated next. […] FIG. 30D). […] FIG. 31A). Amiloride inhibition of ATP hydrolysis of purified recombinant Mbb. ruminantium […] ATP synthase was further tested in DK8 and native membranes. […] FIG. 31B).

[3] = target: 3-hydroxy-3-methylglutaryl-CoA reductase (HMGR) (Methanobrevibacter ruminantium, UniProt D3E332); assay: HMGR activity assay measuring oxidation of NADPH; assay type: biochemical; settings: for Km: substrate of HMGR, assays at 37° C, pH 6.5
M. ruminantium M1 [4] = assay: Stimulation of growth of M1 by alcohols; assay type: cell-based, Methanobrevibacter ruminantium; settings: for culture density (OD600 nm): M1 grown on H2, compared to H2 alone
Experimental: M1 was grown in medium RM02 in anaerobic culture tubes (16 mm internal diameter, 18 mm outer diameter, 150 mm long; Bellco Glass, Vineland, N.J., USA), essentially as described by Balch and Wolfe, 1976. The mineral salts base of RM02 contained (per liter of medium): 1.4 g of KH2PO4, 0.6 g of (NH4)2SO4, 1.5 g of KCl, 1 ml trace element solution […] et al., 1983), 1 ml of selenite/tungstate solution ([…] and […], 1984) and 4 drops of 0.1% (w/v) resazurin solution. This solution was mixed and then boiled under O2-free 100% CO2, before being cooled in an ice bath while it was bubbled with 100% CO2. Once the medium was cool, 4.2 g of NaHCO3 and 0.5 g of L-cysteine.HCl.H2O was added per liter. The medium was dispensed into the culture tubes while being gassed with 100% CO2, at 9.5 ml of medium per tube, and the tubes sealed with blue butyl septum stoppers and aluminium seals (Bellco), with a headspace of 100% CO2. These tubes were sterilised by autoclaving for 20 min at 121° C. Before use, the tubes were stored in the dark for at least 24 h. Sodium acetate (20 mM final conc.), sodium formate (60 mM final conc.), coenzyme M (10 μM final conc.), and vitamin-supplemented clarified rumen fluid were added to sterile media, before inoculation with 0.5 ml of an actively growing culture of M. ruminantium, then gassed with H2 plus CO2 (4:1) to 180 kPa overpressure. In some experiments, the formate was omitted, and alcohols were added, as noted in the experimental descriptions accompanying the results. The culture tubes were incubated on their sides, at 39° C. in the dark, on a platform shaken at 200 rpm. Growth of M1 was followed by measuring the culture density at 600 nm by inserting the tubes directly into an Ultrospec 1100 pro UV/Vis spectrophotometer (Amersham Biosciences, Little Chalfont, Buckinghamshire, UK). […] In the experiments testing the effects of PeiR addition, the culture densities were mathematically normalised to an OD600 of 0.1 at the time the additions were made, and all other readings corrected by the same ratio. This was done to remove the effect of lack of absolute synchronicity between cultures, a common phenomenon when culturing methanogens. This normalisation was not done for experiments testing the utilisation of alcohols. Methane was measured by gas chromatography, taking a 0.3 ml sample from the culture headspace, at the pressure in the culture tube, and injecting it into an Aerograph 660 (Varian Associates, Palo Alto, Calif., USA) fitted with a Porapak Q 80/100 mesh column (Waters Corporation, Milford, Mass., USA) and a thermal conductivity detector operated at 100° C. The column was operated at room temperature with N2 as the carrier gas at 12 cm^3/min.

Compound: ClC(Cl)Cl [Chloroform]
methane yield (M. ruminantium M1 [1]; 0.1 ml added to 10 ml culture at mid-exponential phase): similarly reduced methane yield | culture density (M. ruminantium M1 [1]; 0.1 ml added to 10 ml culture, compared with PeiR): decrease in culture density was less

Compound: C(=NC1CCCCC1)=NC1CCCCC1 [DCCD]
ATP hydrolysis activity, sensitivity to inhibitor [2]: sensitive

Km [3]: 12.4 ± 1.83 µM
Compound: CC(C)(CO[P@@](=O)(O)O[P@@](=O)(O)OC[C@H]1O[C@@H](n2cnc3c(N)ncnc32)[C@H](O)[C@@H]1OP(=O)(O)O)[C@@H](O)C(=O)NCCC(=O)NCCSC(=O)C[C@@](C)(O)CC(=O)O [HMG-CoA]

Km [3]: 165 ± 35 µM
Compound: NC(=O)C1=CN([C@@H]2O[C@H](COP(=O)(O)OP(=O)(O)OC[C@H]3O[C@@H](n4cnc5c(N)ncnc54)[C@H](OP(=O)(O)O)[C@@H]3O)[C@@H](O)[C@H]2O)C=CC1 [NADPH]

Compound: CCC[CH2][Sn]([CH2]CCC)[CH2]CCC [TBT, tributylin]
ATP hydrolysis activity, sensitivity to inhibitor [2]: sensitive

Compound: N=C(N)NC(=O)c1nc(Cl)c(N)nc1N [amiloride]
ATP hydrolysis activity, sensitivity to inhibitor [2]: sensitive

Compound: CCO [ethanol]
growth (M. ruminantium M1 [4]; 20 mM, M1 grown on H2): some inhibition of growth | culture density (OD600 nm) (M. ruminantium M1 [4]; 5 or 10 mM): increase in culture density | growth (M. ruminantium M1 [4]; no H2 added): No growth occurred | methane formation (M. ruminantium M1 [4]; no H2 added): no methane was formed

Compound: CC(C)O [isopropanol]
stimulation of growth (M. ruminantium M1 [4]; 5 to 20 mM, M1 grown on H2): no stimulation | growth (M. ruminantium M1 [4]; no H2 added): No growth occurred | methane formation (M. ruminantium M1 [4]; no H2 added): no methane was formed

Compound: CC[C@H](C)C(=O)O[C@H]1C[C@@H](C)C=C2C=C[C@H](C)[C@H](CC[C@@H]3C[C@@H](O)CC(=O)O3)[C@H]21 [lovastatin, reference compound]
Ki [3]: 8.5 ± 1.1 µM

Compound: CO [methanol]
culture density (OD600 nm) (M. ruminantium M1 [4]; 20 mM): increase in culture density | growth (M. ruminantium M1 [4]; no H2 added): No growth occurred | methane formation (M. ruminantium M1 [4]; no H2 added): no methane was formed

Compound: CCC(C)(C)C(=O)O[C@H]1C[C@@H](C)C=C2C=C[C@H](C)[C@H](CC[C@@H]3C[C@@H](O)CC(=O)O3)[C@H]21 [simvastatin, reference compound]
Ki [3]: 3.7 ± 0.65 µM
